Test results: patent publication US7091220B2, “Substituted indole Mannich bases” (Gruenenthal GmbH, priority 1999, dated 2006)

The compounds below were run against T1, 5-HT transporter (Rattus norvegicus, UniProt P31652) (assay: Inhibition of serotonin re-uptake (5-HT uptake inhibition) in rat brain synaptosomes). Conditions: rat brain synaptosomes (P2 fraction, pons and medulla oblongata); means from 2 parallel experiments; concentration not given.
T1 construct: these vesicular particles were isolated from the pons and medulla oblongata region of the male rat brain; from tissue; host or cells: rat brain synaptosomes (P2 fraction) from pons and medulla oblongata of male rats
T1 sequence (P31652 whole entry): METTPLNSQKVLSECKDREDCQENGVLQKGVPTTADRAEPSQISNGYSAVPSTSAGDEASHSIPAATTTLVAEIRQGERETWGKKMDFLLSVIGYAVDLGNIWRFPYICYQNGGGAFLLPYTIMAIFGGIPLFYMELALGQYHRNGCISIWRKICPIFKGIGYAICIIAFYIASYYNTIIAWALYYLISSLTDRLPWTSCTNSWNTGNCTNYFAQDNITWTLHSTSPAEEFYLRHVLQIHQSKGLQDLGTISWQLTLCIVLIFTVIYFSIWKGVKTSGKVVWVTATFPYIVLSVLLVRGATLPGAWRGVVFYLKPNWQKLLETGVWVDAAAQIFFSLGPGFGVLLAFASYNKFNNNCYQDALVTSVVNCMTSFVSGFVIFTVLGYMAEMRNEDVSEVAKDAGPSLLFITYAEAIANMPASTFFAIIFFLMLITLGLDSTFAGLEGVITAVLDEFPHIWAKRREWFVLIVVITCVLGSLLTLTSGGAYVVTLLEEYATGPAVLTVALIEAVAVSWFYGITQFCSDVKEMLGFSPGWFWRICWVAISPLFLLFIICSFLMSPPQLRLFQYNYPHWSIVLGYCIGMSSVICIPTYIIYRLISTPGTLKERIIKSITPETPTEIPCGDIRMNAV
Type: biochemical
Description: The investigations of the inhibition of serotonin re-uptake (5-HT uptake inhibition) were carried out by the methods such as are described in M. Ch. Frink, H. -H. -Hennies, W. Englberger, M. Haurand and B. Wilffert, Arzneim.-Forsch./Drug. Res. 46 (III), 11, 1996, pages 1029–1036. They are introduced herewith as reference and thus form part of the disclosure.
To carry out these investigations, synaptosomes were freshly isolated from rat brain areas. In each case the so-called “P2” fraction was used, which was prepared according to the instructions in E. G. Gray and V. P. Whittaker, J. Anat. 76, pages 79–88, 1962. This literature is introduced herewith as reference and thus forms part of the disclosure. For determination of the 5-HT uptake, these vesicular particles were isolated from the pons and medulla oblongata region of the male rat brain.
The following characteristic data were determined for the 5-HT transporter: • 5-HT uptake: Km=0.084±0.011 μM • Vmax: 38.13±4.52 pmol/min/mg protein.
The results of the investigations are in each case stated as means from 2 parallel experiments.

Compound | Inhibition of 5HT uptake in %
COc1ccccc1C(c1c(C)[nH]c2ccccc12)N(C)C (centres unmarked) [Example 44, [(2-Methoxyphenyl)-(2-methyl-1H-indol-3-yl)-methyl]-dimethylamine] | 48%
CCn1c(-c2ccccc2)c(C(c2ccc(C(C)(C)C)cc2)N(C)C)c2ccccc21 (centres unmarked) [Example 72, [(4-tert-Butyl-phenyl)-(1-ethyl-2-phenyl-1H-indol-3-yl)-methyl]-dimethyl-amine] | 60%
Cc1[nH]c2ccccc2c1C(c1ccc(F)cc1Cl)N(C)C (centres unmarked) [Example 73, [(2-Chloro-4-fluoro-phenyl)-(2-methyl-1H-indol-3-yl)-methyl]-dimethyl-amine] | 41%
Cc1[nH]c2ccccc2c1C(c1c(F)cccc1Cl)N(C)C (centres unmarked) [Example 74, [(2-Chloro-6-fluoro-phenyl)-(2-methyl-1H-indol-3-yl)-methyl]-dimethyl-amine] | 72%
COc1cccc(C(c2c[nH]c3cccc([N+](=O)[O-])c23)N(C)C)c1OC (centres unmarked) [Example 75, [(2,3-Dimethoxy-phenyl)-(4-nitro-1H-indol-3-yl)-methyl]-dimethylamine] | 39%
COc1cccc(C(c2c[nH]c3c2CC=C(C(=O)O)C3)N(C)C)c1OC (centres unmarked) [Example 76, 3-[(2,3-Dimethoxy-phenyl)-dimethylamino-methyl]-4,7-dihydro-1H-indole-6-carboxylic Acid] | 42%
COc1cccc(C(c2c(C(=O)O)[nH]c3ccc(O)cc23)N(C)C)c1OC (centres unmarked) [Example 77, 3-[(2,3-Dimethoxy-phenyl)-dimethylamino-methyl]-5-hydroxy-1H-indole-2-carboxylic Acid] | 38%
COc1ccc(C(c2c(C)[nH]c3ccccc23)N(C)C)cc1OC (centres unmarked) [Example 78, [(3,4-Dimethoxy-phenyl)-(2-methyl-1H-indol-3-yl)-methyl]-dimethyl-amine] | 73%
COc1ccc(C(c2c(-c3ccc(Cl)cc3)[nH]c3ccccc23)N(C)C)cc1OC (centres unmarked) [Example 79, [[2-(4-Chloro-phenyl)-1H-indol-3-yl]-(3,4-dimethoxy-phenyl)-methyl]-dimethyl-amine] | 50%
CCn1c(-c2ccccc2)c(C(c2ccc(OC)c(OC)c2)N(C)C)c2ccccc21 (centres unmarked) [Example 80, [(3,4-Dimethoxy-phenyl)-(1-ethyl-2-phenyl-1H-indol-3-yl)-methyl]-dimethyl-amine] | 42%
CCc1cccc2c(C(c3ccc(OC)c(OC)c3)N(C)C)c[nH]c12 (centres unmarked) [Example 81, [(3,4-Dimethoxy-phenyl)-(7-ethyl-1H-indol-3-yl)-methyl]-dimethyl-amine] | 68%
COc1ccc(C(c2cn(C)c3ccccc23)N(C)C)cc1OC (centres unmarked) [Example 82, [(3,4-Dimethoxy-phenyl)-(1-methyl-1H-indol-3-yl)-methyl]-dimethyl-amine] | 42%
COc1ccc(C(c2c(-c3ccc(F)cc3)[nH]c3ccccc23)N(C)C)cc1OC (centres unmarked) [Example 83, [(3,4-Dimethoxy-phenyl)-[2-(4-fluoro-phenyl)-1H-indol-3-yl]-methyl]-dimethylamine] | 39%
COc1ccc(C(c2c(-c3ccc(F)c(Cl)c3)[nH]c3ccccc23)N(C)C)cc1OC (centres unmarked) [Example 84, [[2-(3-Chloro-4-fluoro-phenyl)-1H-indol-3-yl]-(3,4-dimethoxy-phenyl)-methyl]-dimethyl-amine] | 44%
CN(C)C(c1ccccc1F)c1c[nH]c2ccc(Cl)cc12 (centres unmarked) [Example 85, [(5-Chloro-1H-indol-3-yl)-(2-fluoro-phenyl)-methyl]-dimethyl-amine] | 44%
Cc1cccc2[nH]cc(C(c3ccc(F)cc3)N(C)C)c12 (centres unmarked) [Example 86, [(4-Fluoro-phenyl)-(4-methyl-1H-indol-3-yl)-methyl]-dimethyl-amine] | 41%
CCc1cccc2c(C(c3ccccc3OC)N(C)C)c[nH]c12 (centres unmarked) [Example 87, [(7-Ethyl-1H-indol-3-yl)-(2-methoxy-phenyl)-methyl]-dimethyl-amine] | 50%
Cc1ccccc1C(c1c(C)[nH]c2ccccc12)N(C)C (centres unmarked) [Example 88, Dimethyl-[(2-methyl-1H-indol-3-yl)-o-tolyl-methyl]-amine] | 62%
CCc1cccc2c(C(c3ccccc3C)N(C)C)c[nH]c12 (centres unmarked) [Example 89, [(7-Ethyl-1H-indol-3-yl)-o-tolyl-methyl]-dimethyl-amine] | 45%
Cc1ccccc1C(c1cn(C)c2ccccc12)N(C)C (centres unmarked) [Example 90, Dimethyl-[(1-methyl-1H-indol-3-yl)-o-tolyl-methyl]-amine] | 44%
Cc1ccccc1C(c1c[nH]c2ccc(Cl)cc12)N(C)C (centres unmarked) [Example 91, [(5-Chloro-1H-indol-3-yl)-o-tolyl-methyl]-dimethyl-amine] | 49%

Further lines, results first:

Inhibition of 5HT uptake in % | Compound
46% | Cc1cccc(C(c2c[nH]c3ccc(Cl)cc23)N(C)C)c1 (centres unmarked) [Example 92, [(5-Chloro-1H-indol-3-yl)-m-tolyl-methyl]-dimethyl-amine]
78% | Cc1ccc(C(c2c(C)[nH]c3ccccc23)N(C)C)cc1 (centres unmarked) [Example 93, Dimethyl-[(2-methyl-1H-indol-3-yl)-p-tolyl-methyl]-amine]
64% | Cc1ccc(C(c2c[nH]c3ccc(Cl)cc23)N(C)C)cc1 (centres unmarked) [Example 94, [(5-Chloro-1H-indol-3-yl)-p-tolyl-methyl]-dimethyl-amine]
70% | Cc1[nH]c2ccccc2c1C(c1cccc(Oc2ccccc2)c1)N(C)C (centres unmarked) [Example 95, Dimethyl-[(2-methyl-1H-indol-3-yl)-(3-phenoxy-phenyl)-methyl]-amine]
55% | CCn1c(-c2ccccc2)c(C(c2cccc(Oc3ccccc3)c2)N(C)C)c2ccccc21 (centres unmarked) [Example 96, [(1-Ethyl-2-phenyl-1H-indol-3-yl)-(3-phenoxy-phenyl)-methyl]-dimethylamine]
79% | CCc1cccc2c(C(c3cccc(Oc4ccccc4)c3)N(C)C)c[nH]c12 (centres unmarked) [Example 97, [(7-Ethyl-1H-indol-3-yl)-(3-phenoxy-phenyl)-methyl]-dimethyl-amine]
66% | CN(C)C(c1cccc(Oc2ccccc2)c1)c1cn(C)c2ccccc12 (centres unmarked) [Example 98, Dimethyl-[(1-methyl-1H-indol-3-yl)-(3-phenoxy-phenyl)-methyl]-amine]
42% | CN(C)C(c1cccc(Oc2ccccc2)c1)c1c(-c2ccc(F)cc2)[nH]c2ccccc12 (centres unmarked) [Example 99, [[2-(4-Fluoro-phenyl)-1H-indol-3-yl]-(3-phenoxy-phenyl)-methyl]-dimethyl-amine]
48% | NC(c1cccc(Oc2ccccc2)c1)c1c(-c2ccc(F)c(Cl)c2)[nH]c2ccccc12 (centres unmarked) [Example 100, [[2-(3-Chloro-4-fluoro-phenyl)-1H-indol-3-yl]-(3-phenoxy-phenyl)-methyl]-amine]
41% | Cc1cccc2[nH]cc(C(c3cccc(Oc4ccccc4)c3)N(C)C)c12 (centres unmarked) [Example 101, Dimethyl-[(4-methyl-1H-indol-3-yl)-(3-phenoxy-phenyl)-methyl]-amine]
42% | CN(C)C(c1ccccc1C(F)(F)F)c1c[nH]c2ccc(Cl)cc12 (centres unmarked) [Example 102, [(5-Chloro-1H-indol-3-yl)-(2-trifluoromethyl-phenyl)-methyl]-dimethyl-amine]
74% | Cc1[nH]c2ccccc2c1C(c1ccc(C(F)(F)F)cc1)N(C)C (centres unmarked) [Example 103, Dimethyl-[(2-methyl-1H-indol-3-yl)-(4-trifluoromethyl-phenyl)-methyl]-amine]

The compounds below were run on α2-subtype of the human α-adrenergic receptor (assay: SPA test, affinity for the α2-subtype of the human α-adrenergic receptor). Conditions: not given.
Type: binding
Description: Wide-ranging testing of the indole Mannich bases according to the invention for their activity was carried out by the conventional high throughput screening methods, such as are described in John P. Devlin, High Throughput Screening, 1997, Marcel Dekker Inc. They are introduced here as a reference and are therefore part of the disclosure.
The action of the indole Mannich bases according to the invention is determined in particular by the affinity for the N-methyl-D-aspartate (NMDA) receptor family, for (α-adrenergic receptors and opioid receptors.
The compounds of the general formula 1 according to the invention investigated are suitable as ligands for the α2-subtype of the human α-adrenergic receptor, which is of importance for pain sensation.
The affinity of the compounds according to the invention for this α2-subtype of the α-adrenergic receptor has been determined with the aid of the SPA test such as is described in John P. Devlin, High Throughput Screening, Marcel Dekker Inc. 1997, pages 307 to 316. This literature is introduced herewith as a reference and is therefore part of the disclosure. The affinities of the compounds according to the invention were in each case determined at a concentration of 10 μM.

Compound | % Inhibition of α2 (humans), 10 μM
5-Benzyloxy-3-(phenyl-pyrrolidin-yl-methyl)-1H-indole [Example 50] | 51%
Cc1[nH]c2ccc([N+](=O)[O-])cc2c1C(c1ccccc1)N(C)C (centres unmarked) [Example 15, Dimethyl-[(2-methyl-5-nitro-1H-indol-3-yl)-phenylmethyl]-amine] | 40%
